# Source: patent US5780441A, “Sphingoglycolipid compounds and therapeutic uses thereof” (Kirin Beer Kabushiki Kaisha, priority 1993, dated 1998)
# Legend:
# [1] = system: mixed lymphocyte culture reaction (spleen cells of C57BL/6 and BALB/C mice); assay: Mixed lymphocyte culture reaction (MLR); assay type: cell-based, mouse (C57BL/6 stimulator, BALB/C responder); conditions: 42 hours; for MLR activating rate (%): 2520 min
# Experimental: ii) Mixed lymphocyte culture reaction (MLR) of the compounds of the present invention
# Spleen cells were prepared from C57BL/6 mice and treated with 50 μg/ml of mitomycin C for 30 minutes. The treated cells were used as stimulator cells, and the spleen cells of BALB/C mice as responder cells. 2×10^6 cells/ml of the both spleen cells were suspended in 10% FCS RPMI1640 as a culture medium. The above-described cells (50 μl/well) and a sample (10 μl/well) were added into wells of a round-bottomed 96 well plate, and cultured under the condition of 5% CO2 at 37° C. for 42 hours. 0.5 μCi/well of ^3 H-thymidine (^3 H-TdR) was added. After 8 hours, the cells were harvested, and the amount of uptaken ^3 H-TdR was measured by a liquid scintillation counter to calculate the ratio (%) of the uptake of ^3 H-TdR in the sample group to that in the vehicle group as the MLR activating rate.
# [2] = system: P388 mouse leukemia cells; assay: Life-span-prolonging (anti-tumor) effect on mice subcutaneously inoculated with P388 mouse leukemia cells; assay type: in vivo, mouse (CDF1 female); conditions: 0.1 mg/kg i.v. on days 1, 5 and 9; for Survival days ave. ± s. d.: all marked ** (p < 0.01)
# Experimental: i) Anti-tumor effect of the compound of the present invention on mice subcutaneously inoculated with P388 mouse leukemia cells.
# Experiment was performed with CDF1 female mice (6 weeks) purchased from NIPPON SLC K.K., which were divided into groups consisting of 5 animals. […]. In this connection, lentinan and picibanil were administered intravenously on days 1, 3, 5, 7 and 9 after implantation, and sizofilan was administered subcutaneously on days 1 through 9. Statistical analysis was performed according to the Mann-Whiteney test.
# [3] = system: mouse splenic lymphocyte; assay: In vitro mouse splenic lymphocyte-proliferation-stimulating effect (3H-TdR uptake); assay type: cell-based, mouse (BDF1 female); conditions: 2 days; for Uptake of 3H-TdR (% of control), splenic lymphocytes: 2880 min
# Experimental: i) In vitro mouse splenic lymphocyte growth promoting effects of the present compounds
# Experiment was performed with BDF1 female mice (6 weeks old) purchased from NIPPON SLC K.K. Spleens were removed from mice, and spleen cells were brayed with slide glasses and hemolized with NH4 Cl. 2×10^6cells/ml of the spleen cells which had been hemolized were suspended in 10% FCS RPMI 1640. The cell suspension (100 μl/well) and a vehicle or sample (10 μl/well) which was prepared so as to have a final level shown in Table 3 were added into wells of a round-bottomed 96 well plate, and cultured under the condition of 5% CO2 at 37° C. for 2 days. 0.5 μCi/well of ^3 H-thymidine (^3 H-TdR) was added. After 6 hours, the cells were harvested, and the amount of ^3 H-TdR uptaken into nucleus was measured by a liquid scintillation counter. The ratio (%) of the uptake of ^3 H-TdR in the sample group to that in the vehicle group was calculated and used as the in vitro mouse splenic lymphocyte-proliferation-stimulating rate.
# [4] = system: B16 mouse melanoma cells; assay: Tumor growth inhibition in mice subcutaneously inoculated with B16 mouse melanoma cells; assay type: in vivo, mouse (BDF1 female); conditions: 0.1 mg/kg i.v. days 1, 5, 9; maximum during 20 days
# Experimental: ii) Anti-tumor effect of the compound according to the present invention on mice subcutaneously inoculated with B16 mouse melanoma cells.
# Experiment was performed with BDF1 female mice (6 weeks) purchased from NIPPON SLC K.K., which were divided into groups consisting of 6 animals. […]. The subcutaneous tumor volumes [(length×width×height)/2] were measured on days 8, 12, 16 and 20 after implantation to determine the tumor growth inhibiting rate (TGIR) of each sample. TGIR was calculated from the following formula: […]
# wherein C: tumor volume in the control group, and
# T: tumor volume in the sample adminitered groups.
# In this connection, Compounds 1-6 and 7-9 were tested in the same time, respectively.
# [5] = system: lethally irradiated mice; assay: Radioprotective effect: life-span prolongation of lethally irradiated mice; assay type: in vivo, mouse (BDF1 female); conditions: 0.1 mg/kg i.v. days 0, 4, 8, 9 Gy X-ray, groups of 10
# Experimental: Life-span-prolonging effects of the present compounds on lethally irradiated mice.
# Experiment was performed with BDF1 female mice (6 weeks old) purchased from NIPPON SLC K.K., which were divided into groups consisting of 10 animals. Mice were irradiated generally with 9 Gy of X-ray with an X-ray generating apparatus, Hitachi, MBR-1520R (radiation day: day 0). Samples at a dose of 0.1 mg/kg were administered into tail vein on days 0, 4 and 8 in order to observe the mortality of the animals for 40 days.
# In the table, two experiments are separated by the broken line.
# [6] = system: mouse bone marrow cells; assay: In vitro mouse bone marrow cell-proliferation-promoting effect (3H-TdR uptake); assay type: cell-based, mouse (BDF1 female); conditions: 4 days; for Uptake of 3H-TdR (% of control), bone marrow cells: 5760 min
# Experimental: In vitro mouse bone marrow cell-proliferation-promoting effect of the present compound
# Experiment was performed with BDF1 female mice (6 weeks old) purchased from NIPPON SLC K.K. Bone marrow cells were removed from the femoral bone of mice by the conventional manner, floated on 10% FCS RPMI 1640, layered over Lympholite M, and centrifuged to give a monocyte fraction. 1×10^6 cells/ml of the monocyte fraction was suspended in 10% FCS RPMI 1640. The cell suspension (100 μl/well) and a vehicle or sample (10 μl/well) which was prepared so as to have a final level shown in Table 2 were added into a wells of round-bottomed 96 well plate, and cultured under the condition of 5% CO2 at 37° C. for 4 days. 0.5 μCi/well of ^3 H-thymidine (^3 H-TdR) was added. After 6 hours, the cells were harvested, and the amount of ^3 H-TdR uptaken into nucleus was measured by a liquid scintillation counter. The ratio of the uptake of ^3 H-TdR in the sample group to that in the vehicle group was calculated and used as the activation rate for promoting in vitro mouse bone marrow cell growth.
smiles,measurement,setting,value
"CCCCCCCCCCCCCCCCCCCCCC[C@@H](O)C(=O)N[C@@H](CO[C@H]1O[C@H](CO)[C@H](O)[C@H](O[C@H]2O[C@H](CO)[C@H](O)[C@H](O)[C@H]2NC(C)=O)[C@H]1O[C@H]1O[C@H](CO)[C@@H](O)[C@H](O)[C@H]1O)[C@H](O)[C@H](O)CCCCCCCCCCCCC [Compound 2, O-(N-acetyl-2-amino-2-deoxy-α-D-galactopyranosyl)-(1→3)-O-[α-D-glucopyranosyl-(1→2)]-O-α-D-galactopyranosyl-(1→1)-(2S,3S,4R)-2-amino-N-[(R)-2-hydroxytetracosanoyl]-1,3,4-heptadecanetriol]",activity at 1 µg/mL,"[1]; Mus musculus, Lymphocyte, 1 × 10^0 μg/ml, read-out: MLR activating rate (%)",213%
same,activity at 0.1 µg/mL,"[1]; Mus musculus, Lymphocyte, 1 × 10^-1 μg/ml, read-out: MLR activating rate (%)",158%
same,Survival days ave. ± s. d.,[2],15.8 ± 0.5 days
same,response vs control in vivo at 0.1 mg/kg,"[2]; Mus musculus, P388, iv, survival vs vehicle, read-out: T/C (%)",123%
same,activity at 1 µg/mL,"[3]; Mus musculus, Splenic lymphocyte, 48 h, 10^0 μg/ml, read-out: Uptake of 3H-TdR (% of control), splenic lymphocytes",890%
same,activity at 0.1 µg/mL,"[3]; Mus musculus, Splenic lymphocyte, 48 h, 10^-1 μg/ml, read-out: Uptake of 3H-TdR (% of control), splenic lymphocytes",735%
same,activity at 0.01 µg/mL,"[3]; Mus musculus, Splenic lymphocyte, 48 h, 10^-2 μg/ml, read-out: Uptake of 3H-TdR (% of control), splenic lymphocytes",508%
same,activity at 0.001 µg/mL,"[3]; Mus musculus, Splenic lymphocyte, 48 h, 10^-3 μg/ml, read-out: Uptake of 3H-TdR (% of control), splenic lymphocytes",270%
same,"Maximum tumor growth inhibiting rate, TGIR (%)",[4],82.6%
same,Number of surviving mice,[5]; day 10,10 mice
same,Number of surviving mice,[5]; day 15,10 mice
same,Number of surviving mice,[5]; day 20,10 mice
same,Number of surviving mice,[5]; day 25,9 mice
same,Number of surviving mice,[5]; day 30,9 mice
same,Number of surviving mice,[5]; day 35,9 mice
same,Number of surviving mice,[5]; day 40,9 mice
same,activity at 0.1 µg/mL,"[6]; Mus musculus, Bone marrow cell, 96 h, 10^-1 μg/ml, read-out: Uptake of 3H-TdR (% of control), bone marrow cells",268%
same,activity at 0.01 µg/mL,"[6]; Mus musculus, Bone marrow cell, 96 h, 10^-2 μg/ml, read-out: Uptake of 3H-TdR (% of control), bone marrow cells",276%
"CCCCCCCCCCCCCCCCCCCCCC[C@@H](O)C(=O)N[C@@H](CO[C@H]1O[C@H](CO)[C@H](O)[C@H](O[C@H]2O[C@H](CO)[C@H](O)[C@H](O)[C@H]2NC(C)=O)[C@H]1O[C@H]1O[C@H](CO)[C@@H](O)[C@H](O)[C@H]1O)[C@H](O)[C@H](O)CCCCCCCCCCCC(C)C [Compound 3, O-(N-acetyl-2-amino-2-deoxy-α-D-galactopyranosyl)-(1→3)-O-[α-D-glucopyranosyl-(1→2)]-O-α-D-galactopyranosyl-(1→1)-(2S,3S,4R)-2-amino-N-[(R)-2-hydroxytetracosanoyl]-16-methyl-1,3,4-heptadecanetriol]",MLR activating rate (%),[1]; 1 × 10^0 μg/ml,210%
same,MLR activating rate (%),[1]; 1 × 10^-1 μg/ml,138%
same,Survival days ave. ± s. d.,[2],15.0 ± 0 days
same,T/C (%),[2]; survival vs vehicle,117%
same,"Uptake of 3H-TdR (% of control), splenic lymphocytes",[3]; 10^0 μg/ml,815 % of control
same,"Uptake of 3H-TdR (% of control), splenic lymphocytes",[3]; 10^-1 μg/ml,704 % of control
same,"Uptake of 3H-TdR (% of control), splenic lymphocytes",[3]; 10^-2 μg/ml,397 % of control
same,"Uptake of 3H-TdR (% of control), splenic lymphocytes",[3]; 10^-3 μg/ml,258 % of control
same,"Maximum tumor growth inhibiting rate, TGIR (%)",[4],66.8%
same,Number of surviving mice,[5]; day 10,10 mice
same,Number of surviving mice,"[5]; day 15, 0.1 mg/kg",6 mice
same,Number of surviving mice,"[5]; day 20, 0.1 mg/kg",5 mice
same,Number of surviving mice,"[5]; day 25, 0.1 mg/kg",5 mice
same,Number of surviving mice,"[5]; day 30, 0.1 mg/kg",5 mice
same,Number of surviving mice,"[5]; day 35, 0.1 mg/kg",5 mice
same,Number of surviving mice,"[5]; day 40, 0.1 mg/kg",5 mice
same,"Uptake of 3H-TdR (% of control), bone marrow cells",[6]; 10^-1 μg/ml,314 % of control
same,"Uptake of 3H-TdR (% of control), bone marrow cells",[6]; 10^-2 μg/ml,138 % of control
